Source: US20020146424A1, “Polyphenolics for enhancing endothelial cell-mediated fibrinolysis” (priority 2001, published 2002)

Legend:
cultured HUVECs = assay: Surface-localized fibrinolytic activity (125I-labeled Glu-Pmg conversion to plasmin) in cultured HUVECs; assay type: cell-based, human; settings: 1 hour preincubation; for surface-localized fibrinolytic activity, maximum increase: 0.001 μM, control 38.0 pmol/well; for surface-localized fibrinolytic activity, maximum increase / surface-localized fibrinolytic activity, peak: 24 hours after induction; for increase in fibrinolytic activity compared to control: measured 24 hours later; for surface-localized fibrinolytic activity, peak: 10 μM, control 38.0±4.0
Experimental: Human umbilical vein ECs (HUVECs) were obtained from fresh (discarded) umbilical cords by mild collagenase treatment (type 1, CLS) by the method of Jaffe et al (J. […] ECs were seeded into human fibronectin-coated Petri dishes (9.6 cm^2) or plastic flasks (25 cm^2) and grown to confluency. Cultures were maintained at 37° C. in a humidified 95% air, 5% CO2 atmosphere and re-fed every 48 hours with complete culture medium consisting of Medium 199 (M199) powdered medium containing L-glutamine and Earle's salt, 0.025 M HEPES buffer (pH 7.4), 0.0002 M fresh L-glutamine, 100 units/ml of penicillin, 100 μg/ml streptomycin, 10% heat-deactivated FBS, 90 μg/ml heparin and 50 μg/ml of unpurified ECGF. […] Cells were routinely counted using phase microscopy and a 0.5 mm×0.5 mm counting reticule. Individual HUVEC cultures were routinely examined for their purity and characterized as ECs by their uptake of Dil-Ac-LDL and typical monlayer “cobblestone” tight-packing morphology. Only individual cultures with 95% identifiable ECs were used in these studies. All alcohol induction studies were conducted with confluent cultured HUVECs (in 96-well plates) preincubated in the absence/presence of varying concentration of alcohol (0-0.1%, v/v) for one hour at 37° C., washed two times in DBPS, re-fed with complete 10% serum containing medium and then further incubated at 37° C. in the absence of alcohol for 24 hours. surface-localized fibrinolytic activity was measured as the conversion of ^125-labeled Glu-Pmg levels after 24 hours. All studies were conducted with confluent cultured HUVECs. The cells were preincubated in the absence/presence of varying dilutions (1:1000, 1:500, 1:250, 1:125, 1:62.5) of red wine, de-alcoholized red wine or grape juice for 1 hour at 37° C., washed two times with DPBS, re-fed with complete 10% serum-containing medium, and then further incubated at 37° C. in the absence of these compounds for 24 hours. Surface-localized fibrinolytic activity was measured as the conversion of ^125-labeled Glu-Pmg levels after 24 hours. All polyphenolic induction studies were conducted with confluent cultured HUVECs (in 96-well plates). The cells were preincubated in the absence/presence of varying concentrations (0.001-10 μM) of catechin, epicatechin, quercetin or resveratrol for 1 hour at 37° C., washed two times with DPBS, re-fed with complete 10% serum-containing medium, and then further incubated at 37° C. in the absence of these compounds for 24 hours. Surface-localized fibrinolytic activity was measured by the direct conversion of cell-bound ^125I-labeled Glu-Pmg hours after the initial induction period. […] The generation of either ^125I-labeled plasmin Mr 20-kDa light or Mr 83-kDa heavy chain formation was quantitated by phosphorimaging autoradiography after SDS-PAGE under reduced conditions. […] The cultures were then placed in a water bath at 37° C. to initiate the receptor-bound endogenous PA-mediated conversion of ^125I labeled Glu-Pmg to ^125I-labeled plasmin. Reactions were stopped after 1 and 10 minutes by the rapid addition of 40 μl of hot (56° C.) solubilizing buffer (4% sodium dodecyl sulfate (SDS), 10% glycerol and 0.2M Tris-HCl, pH 6.8). The total solubilized contents of each well containing generated ^125I-labeled plasmin were removed and reduced by the addition of 5% B-mercaptoethanol and boiling for 5 minutes. […] The radioactivity content of either the ^125I-labeled plasmin light- or heavy-chains was determined by quantitative phosphorimaging autoradiography. After electrophoresis, gels were dried and exposed in phosphorimaging cassettes for 16-18 hours. The amount of remaining ^125I-labeled Glu-Pmg and newly generated ^125I-labeled Mr 20-kDa plasmin light chain in each individual gel was quantitated by measuring the radioactivity content in each band by phosphorimaging autoradiography, using a Molecular Dynamics Series […] Phosphorimager in combination with ImageQuant software. […]

PAI-1 mRNA = PAI-1 mRNA expression in rat thoracic aorta endothelial cells by in situ hybridization after gavage; assay type: in vivo; settings: 6 hours after gavage; catechin 0.495, epicatechin 0.224, quercetin 0.033, resveratrol 0.0033 mg/kg; ethanol 1.25% v/v
Experimental: (§1) Rats used in in vivo studies were Sprague Dawley rats weighing 250 to 300 grams.
In in vivo studies of rat thoracic aorta, eighteen male rats were treated by gavage as indicated above. One control group of three rats was gavaged with 1 ml of saline. Five experimental groups with three rats per group were then gavaged with 1 ml saline containing one of the following: (i) 1.25% (v/v) ethanol, (i) 0.495 mg catechin per kg body weight, (iii) 0.224 mg epicatechin per kg body weight, (iv) 0.033 mg quercetin per kg body weight, or (v) 0.0033 mg resveratrol per kg body weight.
At 3 and 6 hours following gavage, the animals were anesthetized with ketamine/rompin (10 and 1.5 mg/100 g body weight, respectively). The portal vein was cannulated and the vasculature perfused with cold, heparinized saline for 5 minutes to remove blood. […] The thoracic aorta was perfused-fixed and paraffin embedded to evaluate the short-term effects of alcohol/phenolics on PA1-I mRNA expression using in situ hybridization techniques.

t-PA mRNA = t-PA mRNA expression in rat aortic endothelium by in situ hybridization after gavage; assay type: in vivo, Sprague Dawley rats; settings: 6 hours after gavage; catechin 0.495, epicatechin 0.224, quercetin 0.033, resveratrol 0.0033 mg/kg; ethanol 1.25% v/v
Experimental: as §1
For in vivo studies, 18 male Sprague Dawley rats, 250-300 g, were intubated with Popper feeding tubes (20 gauge, 1.5 inches). The control group of three rats were gavaged with PBS in a final volume of 1 ml. Five experimental groups with three rats per groups were gavaged with 1 ml of PBS containing either individual phenolic (catechin, 0.495; epicatechin, 0.224; quercetin, 0.033; and resveratrol, 0.0033 mg/kg body weight), or ethanol 1.25% v/v, for final 0.05% blood level. These doses of phenolics and ethanol are equivalent, on a per kg basis, to the amount consumed in about 2 glasses (25 ml) of red wine by a 70 kg adult. The t-PA and u-PA mRNA expression was analyzed at 6 hours after treatment, when the rats were anesthetized with ketamine/rompin. The thoracic aorta was perfusion-fixed and paraffin embedded to evaluate the effects of ethanol and individual phenolics on the induction of t-PA and u-PA mRNA expression in vivo in the aortic endothelium using in situ hybridization using riboprobes.
To insure that the t-PA and u-PA sense and antisense riboprobes were specific for their respective mRNAs in tissue sections, the sequence-verified riboprobes were hybridized with purified rat liver RNA, rich in t-PA and u-PA mRNA.

Row | Compound | surface-localized fibrinolytic activity, maximum increase (cultured HUVECs) [pmol/well] | expression of PAI-1 mRNA in endothelium of thoracic aorta (PAI-1 mRNA) | t-PA mRNA chromogenic signal intensity (antisense riboprobe) in aortic tissue sections vs PBS-treated animals (t-PA mRNA) | increase in fibrinolytic activity compared to control (cultured HUVECs; 0.05% (v/v) ethanol, p=0.05) | increase in fibrinolytic activity compared to control (cultured HUVECs; 0.1% (v/v) ethanol, p=0.0055) | surface-localized fibrinolytic activity, peak (cultured HUVECs)
1 | Oc1cc(O)c2c(c1)O[C@H](c1ccc(O)c(O)c1)[C@H](O)C2 [epicatechin] | 89.0±4.0 | – | – | – | – | –
2 | CCO [ethanol, reference compound] | – | significant decrease | more chromogenic signal intensity | about 1.5 fold | about 3 fold | –
3 | O=c1c(O)c(-c2ccc(O)c(O)c2)oc2cc(O)cc(O)c12 [quercetin] | – | markedly reduced | more chromogenic signal intensity | – | – | 64.0±6.0
4 | Oc1ccc(C=Cc2cc(O)cc(O)c2)cc1 [resveratrol] | – | markedly reduced | more chromogenic signal intensity | – | – | 55.0±6.0
5 | catechin | 91.5±5.0 | markedly reduced | more chromogenic signal intensity | – | – | –
